“Also recorded” adds a separate entry of the source. Residues, ends and D or L forms follow the SMILES beside them. *: point of attachment. Cbz = O=C(OCc1ccccc1)*
Key:
[1] = tested on: Molm13 PPM1D-mutant and control single cell clones; experiment: 72-hour cell viability analysis; format: cell-based, human; conditions: for viability of PPM1D-mutant cells versus control cells in the presence of chemotherapeutic agent: 72 hours, increasing concentrations
Description: FIG. 2B provides immunoblots of whole cell lysates from Molm13 control cells (control), PPM1D-mutant pooled clones and PPM1D frame-shift (fs) mutant single cell clones probed with anti-PPM1D and anti-Actin. […] FIG. 2D is a plot depicting viability assays in Molm13 PPM1D-mutant or control single cells clones that were treated with increasing concentrations of cyclophosphamide for 72 hours. FIG. 2E is a plot depicting viability assays in Molm13 PPM1D-mutant or control single cells clones that were treated with increasing concentrations of cisplatin for 72 hours. […] FIG. 2G is a plot depicting flow cytometric readout of competition experiment with 5% pooled Molm13 PPM1D-mutant cells and 95% pooled Molm13 control cells exposed to 350 nM Cyclophosphamide or vehicle for 24 days. FIG. 2H is a plot depicting flow cytometric readout of competition experiment with 5% pooled Molm13 PPM1D-mutant cells and 95% pooled Molm13 control cells exposed to 1 μM Cisplatin or vehicle for 24 days. […] PPM1D and control sgRNAs were identified through their fluorophores.
The line represents the locally weighted scatterplot smoothing (LOESS) of 0.1. […] FIG. 8B is a vector map of the degradation reporter vector, with different PPM1D cDNA constructs inserted. FIG. 8C is a graph showing EGFP/mCherry ratio for Molm13 cells with overexpression of wild type PPM1D, truncated PPM1D or the C-terminal end of PPM1D. FIG. 8D is a graph showing EGFP/mCherry ratio for Molm13 p53^−/− cells with overexpression of wild type PPM1D, truncated PPM1D or the C-terminal end of PPM1D. FIG. 8E is a graph showing EGFP/mCherry ratio in Molm13 cells before and after exposure to MG132 (10 μM, 6 hours), normalized to pre-treatment values. FIG. 8F is a plot showing cell viability analysis in Molm13 control cells (control), Molm13 PPM1D truncating mutant cells (PPM1D mutant) and Molm13 cells with overexpression of wild-type PPM1D (WT overexpression). […] For all experiments the following apply: *=p<0.05, **=p<0.01, ***=p<0.001,****=p<0.0001
(§1) 72 hour cell viability analysis in Molm13 PPM1D-mutant and control single cell clones after exposure to increasing doses of GSK2830371. FIG. 10F is a graph showing percent Annexin V positive cells in cells treated with PPM1D inhibitor or vehicle. Annexin V staining and flow cytometric analysis of Molm13 PPM1D-mutant and control single cell clones exposed to 3 μM of GSK2830371. *=p<0.05, **=p<0.01, ***=p<0.001
To study the role of PPM1D mutations in chemotherapy resistance, mutations in PPM1D were induced using the CRISPR-Cas9 system. […] Using sequence verified PPM1D mutant (fs) and empty vector control Molm13 cells, the effects of mutant and wild type PPM1D in the response to DNA damaging chemotherapy were analyzed. […] (FIG. 1C).
(§2) To study the sensitivity of PPM1D truncating mutations to chemotherapy exposure, frame-shift mutations were introduced in the PPM1D gene in Molm13 AML cells, which are TP53 wild-type, using CRISPR-Cas9.

[2] = tested on: Molm13 PPM1D-mutant pooled cells and control pooled cells; experiment: In vitro competition experiment, PPM1D-mutant cells mixed with control cells; format: cell-based, human; conditions: PPM1D mutant cells mixed with control cells
Description: FIG. 2B provides immunoblots of whole cell lysates from Molm13 control cells (control), PPM1D-mutant pooled clones and PPM1D frame-shift (fs) mutant single cell clones probed with anti-PPM1D and anti-Actin. […] FIG. 2D is a plot depicting viability assays in Molm13 PPM1D-mutant or control single cells clones that were treated with increasing concentrations of cyclophosphamide for 72 hours. FIG. 2E is a plot depicting viability assays in Molm13 PPM1D-mutant or control single cells clones that were treated with increasing concentrations of cisplatin for 72 hours. […] FIG. […] FIG. […] PPM1D and control sgRNAs were identified through their fluorophores.
as §1, §2

[3] = tested on: Molm13 PPM1D-mutant and control single cell clones; experiment: Annexin V staining and flow cytometric analysis; format: cell-based, human; conditions: 400 nM cytarabine, 24 hours
Description: FIG. 9E is a chart depicting the consensus sequence of PPM1D based on substrate analysis of 43 substrate candidates of PPM1D. FIG. 9F depicts 43 potential PPM1D substrate sites on pSer/Thr residues on 25 proteins. […] Only localized sites were considered. Figure discloses SEQ ID NOS 4-20 and 20-31, respectively, in order of appearance. FIG. 9G depicts a schema illustrating the components of the DNA-damage response pathway that are targeted by PPM1D in leukemia cells, based on the results from the phosphoproteomics analysis. Phospho-targets of PPM1D identified by mass spectrometry (FDR<0.1) are shown in bold. Predicted PPM1D target sites that were based on the identified consensus sequence with a glutamine at +1 and >2 acidic residues (p=3.595e-13, Fisher's exact test) are shown in italics.
as §1

[4] = tested on: Molm13 PPM1D-mutant and control single cell clones; experiment: BrdU staining and flow cytometric analysis (cell cycle); format: cell-based, human; conditions: 100 nM cytarabine, 24 hours
PPM1D-mutant cells = experiment: In vivo competition experiment in bone marrow chimeras treated with cytarabine; conditions: mice
Description: FIG. 5 provides an experimental schema of an in vivo competition experiment. Bone marrow chimaeras were generated by transplanting Mx-Cre Cas9 cKit^+Cas9 cells transduced with a BFP-tagged sgRNA targeting exon 6 of PPM1D or a tRFP-tagged control sgRNA into lethally-irradiated syngeneic recipients in a 1:5 ratio.
PPM1D and control sgRNAs were identified through their fluorophores. […] […] PPM1D and control sgRNAs were identified through their fluorophores.
Whether PPM1D mutations confer resistance to chemotherapy in vivo was examined. In another experiment, bone marrow chimeras were generated using Mx-Cre Cas9 c-Kit^+ cells that were transduced with a BFP-tagged sgRNA targeting exon 6 of PPM1D or a tRFP-tagged control sgRNA and transplanted into lethally-irradiated syngeneic recipients in a 1:5 ratio (FIG. 5). Mice were treated with cytarabine or vehicle after hematopoietic reconstitution.

PPM1D = PPM1D degradation reporter (EGFP/mCherry ratio); format: cell-based, human; conditions: Molm13 cells, MG132 10 μM, 6 hours
Description: The line represents the locally weighted scatterplot smoothing (LOESS) of 0.1. Overlaid are frame-shift and non-sense mutations (black bars) identified in the blood cells of 29,562 persons as described in FIG. 2A. FIG. 8B is a vector map of the degradation reporter vector, with different PPM1D cDNA constructs inserted. FIG. 8C is a graph showing EGFP/mCherry ratio for Molm13 cells with overexpression of wild type PPM1D, truncated PPM1D or the C-terminal end of PPM1D. FIG. 8D is a graph showing EGFP/mCherry ratio for Molm13 p53^−/− cells with overexpression of wild type PPM1D, truncated PPM1D or the C-terminal end of PPM1D. FIG. 8E is a graph showing EGFP/mCherry ratio in Molm13 cells before and after exposure to MG132 (10 μM, 6 hours), normalized to pre-treatment values. […]
A reporter vector was generated in which wild-type PPM1D cDNA (wt), PPM1D truncation mutants, or the last 80 amino-acids (C-terminal region) were cloned in frame with GFP, so the level of expression of the PPM1D sequences could be monitored by GFP expression (FIG. 8B, Table 1).
The fluorescence level of mCherry, which is expressed following an IRES sequence, provided an internal control for vector expression in each cell. […]

SMILES: O=C1/C(=C/c2cccs2)CC/C1=C\c1cccs1 [CCT007093]
- sensitivity of PPM1D-mutant cells versus control cells to single agent PPM1D inhibitor, cell viability ([1]; 72 hour, increasing doses): increased sensitivity to treatment with the PPM1D inhibitor CCT007093 in comparison to wild-type (wt) control cells; also recorded: increased sensitivity to PPM1D inhibition with either compound in comparison to wild type control cells

SMILES: N.N.[Cl][Pt][Cl] [Cisplatin]
- viability of PPM1D-mutant cells versus control cells in the presence of chemotherapeutic agent [1]: increased viability at 72 hours

SMILES: O=P1(N(CCCl)CCCl)NCCCO1 (stereo not drawn) [Cyclophosphamide]
- viability of PPM1D-mutant cells versus control cells in the presence of chemotherapeutic agent [1]: increased viability at 72 hours
- competitive advantage of PPM1D-mutant cells under chemotherapy [2]: PPM1D mutant cells had a competitive advantage

SMILES: Nc1ccn([C@@H]2O[C@H](CO)[C@@H](O)[C@@H]2O)c(=O)n1 [Cytarabine]
- viability of PPM1D-mutant cells versus control cells in the presence of chemotherapeutic agent [1]: increased resistance to Cytarabine in PPM1D mutant cells compared to empty vector controls; also recorded: resistance to treatment with Cytarabine
- viability of PPM1D-mutant cells versus control cells in the presence of chemotherapeutic agent ([1]; listed as cytarabine): increased viability at 72 hours
- competitive advantage of PPM1D-mutant cells under chemotherapy [2]: PPM1D mutant cells had a competitive advantage
- apoptosis of PPM1D-mutant versus control cells after chemotherapy, Annexin V staining [3]: decreased apoptosis
- progression to G2/M phase of PPM1D-mutant versus control cells after chemotherapy [4]: increased progression to G2/M phase
- PPM1D-mutant cells in the peripheral blood after cytarabine treatment (PPM1D-mutant cells; 1:5 chimeras, several rounds of cytarabine): significant, selective increase of PPM1D-mutant cells in the peripheral blood
- PPM1D-mutant hematopoietic stem and progenitor cells in the bone marrow (PPM1D-mutant cells; 12 weeks, 3 rounds of cytarabine): also increased

SMILES: CC(C)C[C@@H](C=O)NC(=O)[C@H](CC(C)C)NC(=O)[C@H](CC(C)C)NC(=O)OCc1ccccc1 [MG132] (Cbz-Leu-Leu-Leu-aldehyde)
- degradation of PPM1D constructs (EGFP/mCherry ratio) (PPM1D): decreased degradation of wild-type and C-terminal PPM1D, but not of the truncating mutants
